According to patent US20150352108A1, “AMINO-PYRIMIDINE COMPOUNDS AS INHIBITORS OF TBK1 AND/OR IKK EPSILON” (Alzheimer's Institute of America, priority 2009, published 2015):

Columns and labels:
BLyS mRNA, SLE PBMCs = assay: Agonist induced BLyS mRNA in PBMCs from SLE patients (qRT-PCR); assay type: cell-based, human; conditions: LMW poly(I:C), serial dilutions
Description: To determine if inhibition of IKKε and/or TBK1 modulates nucleic acid agonist induced gene expression, high molecular weight poly(I:C) (MDA5 agonist) and low weight poly(I:C) (RIG-I agonist) were electroporated into human peripheral blood mononuclear cells (PBMCs) obtained from normal donors, or low molecular weight Poly(I:C) was electroporated into PBMCs from donors that have Systemic Lupus Erythematosus (SLE). Induction of IFN-α2, IFN-β, and BLyS mRNA production was monitored by qRT-PCR.
Human PBMCs were collected from healthy donors using routine laboratory procedures. PBMCs from SLE patients were purchased from Astarte Biologics (Redmond, Wash.). The PBMCs were electroporated using Nucleofector® Kit V (Lonza, Walkersville, Md.) with 0.4 ug/mL of high molecular weight poly (I:C) (InvivoGen, San Diego, Calif.) or 0.4 ug/mL low molecular weight poly (I:C) (InvivoGen, San Diego, Calif.) and seeded into wells containing serial dilutions of Example Compound 5 (0.1% final DMSO concentration). […] RNA was quantitated using Quant-iT™ RiboGreen® RNA Assay Kit (Invitrogen, Carlsbad, Calif.). Reverse transcription and real-time PCR were performed using the QuantiTect Probe RT-PCR Kit (Qiagen, Germantown, Md.) and the 7300 Real-Time PCR System (Applied Biosytems, Foster City, Calif.). […]

[1] = system: Poly(I:C)-induced innate/adaptive immune and IFNα/β-regulated genes, HFLS-RA cells; assay: Genes modulated by IKKε/TBK1 inhibition in HFLS-RA cells (qRT-PCR arrays, Poly(I:C)); assay type: cell-based, human; conditions: 500 nM pre-treatment
Protocol: IKKε and TBK1 play important roles in modulating several innate/adaptive immune and interferon-regulated genes in response to bacterial and viral infections. To identify genes that are under the control of IKKε and TBK1 kinase activity HFLS-RA cells (Cell Applications, Inc., San Diego, Calif.) were pretreated with a compound according to Formula I (Example Compound 5) (0.5 uM), and then treated with the TLR3 agonist Poly(I:C). A focused RT-PCR array containing either 84 innate/adaptive immune-regulated or 84 IFNα/β-regulated genes were probed by qRT-PCR using mRNA isolated from the treated cells, as well as from untreated control cells, according to the following protocol.
HFLS cells isolated from patients with RA were obtained from Cell Applications, Inc. (HFLS-RA, Cell Applications, Inc., San Diego, Calif.). Cells were seeded in synoviocyte growth medium (Cell Applications, Inc., San Diego, Calif.) and allowed to grow overnight. The following day, media was replaced and cells were treated with 500 nM of Example Compound 5 (0.1% final DMSO concentration). Two hours later, cells were induced with 50 µg/mL Poly(I:C) (Sigma-Aldrich, St. Louis, Mo.). […] RNA was quantitated using Quant-iT™ RiboGreen® RNA Assay Kit (Invitrogen, Inc., Carlsbad, Calif.). […]

IKKε = target: T1, IKKε (Homo sapiens, UniProt Q14164); assay: In-vitro IKKε kinase assay ([γ33]ATP filter-plate); assay type: biochemical; conditions: text bins; read-out: IC50 for inhibition of the kinase activity of IKKε
T1 construct: His-tag; made in house; host or cells: Sf9 insect cells
T1 sequence (Q14164 1-716): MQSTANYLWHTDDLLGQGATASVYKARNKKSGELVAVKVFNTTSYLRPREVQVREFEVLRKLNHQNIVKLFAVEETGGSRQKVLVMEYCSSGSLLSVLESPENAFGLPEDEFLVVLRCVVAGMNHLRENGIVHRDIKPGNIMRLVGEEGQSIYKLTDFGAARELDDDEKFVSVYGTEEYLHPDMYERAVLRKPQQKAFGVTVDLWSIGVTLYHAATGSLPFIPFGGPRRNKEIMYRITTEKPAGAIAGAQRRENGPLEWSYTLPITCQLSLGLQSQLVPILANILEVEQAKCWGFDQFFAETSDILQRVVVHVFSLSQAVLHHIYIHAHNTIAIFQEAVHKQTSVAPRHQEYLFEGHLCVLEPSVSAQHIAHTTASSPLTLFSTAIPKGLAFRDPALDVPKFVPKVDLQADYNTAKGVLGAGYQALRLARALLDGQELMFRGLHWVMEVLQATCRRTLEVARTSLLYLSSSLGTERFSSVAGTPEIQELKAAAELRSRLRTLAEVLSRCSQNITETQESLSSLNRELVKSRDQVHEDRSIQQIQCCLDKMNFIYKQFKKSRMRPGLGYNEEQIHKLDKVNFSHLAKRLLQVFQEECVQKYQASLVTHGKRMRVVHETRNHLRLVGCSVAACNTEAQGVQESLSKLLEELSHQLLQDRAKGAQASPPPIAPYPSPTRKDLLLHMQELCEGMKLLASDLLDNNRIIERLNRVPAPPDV
Procedure, shortened: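 Phosphorylation of casein or myelin basic protein was counted by P-81 filter capture after 30-45 min reactions stopped with phosphoric acid, with counts normalized to DMSO after background subtraction. ATP was twice Km: 60 μM for TBK1 and 32 μM for IKKε, plus [γ33]ATP. Sf9-expressed His-tag enzymes were used at normal/sensitized levels of 0.1/0.02 μg/ml (TBK1) and 0.1/0.015 μg/ml (IKKε).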

N#Cc1cc(-c2ccnc(Nc3ccc(N4CCOCC4)cc3)n2)ccc1OC1CCOCC1 [Example 5, 5-(2-{[4-(Morpholin-4-yl)phenyl]amino}pyrimidin-4-yl)-2-(tetrahydro-2H-pyran-4-yloxy)benzaonitrile]
induction of BLyS mRNA (BLyS mRNA, SLE PBMCs): potently inhibited | induction of genes normally induced by Poly(I:C) treatment [1]: potently inhibited | IC50 (IKKε): < 5 nM
